From patent US6756210B2, “Linoleic acid diol and glucuronide conjugate levels as diagnostic markers of disorders of abnormal regulation of cytochrome P450 metabolism of unsaturated fatty acids” (The Regents of the University of California, priority 2001, dated 2004)
Like-named read-outs stand apart in the source and are kept apart here.

Experiments:
[1] = target: T1, recombinant mouse sEH (MsEH) (Mus musculus, UniProt P34914); experiment: Inhibition of recombinant mouse sEH (MsEH); type: biochemical
T1 sequence (P34914 1-554): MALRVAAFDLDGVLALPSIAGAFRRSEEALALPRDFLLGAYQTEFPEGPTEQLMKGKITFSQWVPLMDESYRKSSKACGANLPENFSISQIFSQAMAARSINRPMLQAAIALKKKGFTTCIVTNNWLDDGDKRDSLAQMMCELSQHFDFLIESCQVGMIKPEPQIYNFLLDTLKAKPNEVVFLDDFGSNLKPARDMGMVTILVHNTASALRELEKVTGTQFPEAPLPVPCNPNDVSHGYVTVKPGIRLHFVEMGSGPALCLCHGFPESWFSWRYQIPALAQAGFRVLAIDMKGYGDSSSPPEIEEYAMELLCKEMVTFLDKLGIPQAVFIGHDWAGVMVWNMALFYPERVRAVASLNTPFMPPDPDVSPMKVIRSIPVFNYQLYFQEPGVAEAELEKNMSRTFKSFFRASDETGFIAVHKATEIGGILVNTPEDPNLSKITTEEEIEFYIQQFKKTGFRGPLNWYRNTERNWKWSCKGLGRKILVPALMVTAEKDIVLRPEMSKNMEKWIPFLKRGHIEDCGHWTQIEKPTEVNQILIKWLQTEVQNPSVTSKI

[2] = target: T2, Human sEH (HsEH) (Homo sapiens, UniProt P34913); experiment: Inhibition of recombinant human sEH (HsEH); type: biochemical; details: HsEH 0.26 μM
T2 sequence (P34913 1-555): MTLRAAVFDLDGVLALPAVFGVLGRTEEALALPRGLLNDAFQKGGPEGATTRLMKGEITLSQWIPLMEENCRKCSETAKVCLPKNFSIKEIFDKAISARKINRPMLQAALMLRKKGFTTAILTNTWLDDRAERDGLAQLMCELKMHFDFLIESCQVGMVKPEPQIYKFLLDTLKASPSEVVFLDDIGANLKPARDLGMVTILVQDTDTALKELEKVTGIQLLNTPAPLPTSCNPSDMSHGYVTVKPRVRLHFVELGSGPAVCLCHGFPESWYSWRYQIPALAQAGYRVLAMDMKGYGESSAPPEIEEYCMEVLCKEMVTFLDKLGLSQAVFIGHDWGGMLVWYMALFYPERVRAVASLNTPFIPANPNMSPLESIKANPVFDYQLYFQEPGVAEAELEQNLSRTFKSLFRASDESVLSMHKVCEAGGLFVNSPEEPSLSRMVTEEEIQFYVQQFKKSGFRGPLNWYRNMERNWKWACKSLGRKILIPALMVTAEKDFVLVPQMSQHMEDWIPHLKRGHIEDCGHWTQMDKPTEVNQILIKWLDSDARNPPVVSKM

[3] = Table 1, MsEH 0.13 μM, read-out: Mouse sEH IC50
[4] = Table 2, MsEH 0.13 μM, read-out: Mouse sEH IC50

Compound | IC50 [1, 3] [nM] | IC50 ([2]; Table 1) [nM] | IC50 [1, 4] [nM] | IC50 ([2]; Table 2) [nM] | IC50 [1] [nM]
Nc1ccc(NC(=O)NC2CCCCC2)cc1 [compound 385] | 170 ± 20 | 2200 ± 100 | – | – | –
CCCCCCNC(=O)Nc1ccccc1 [compound 157] | 850 ± 10 | 1430 ± 30 | – | – | –
O=C(NCCc1cnc[nH]1)NC1CCCCC1 [compound 461] | 420 ± 10 | 550 ± 20 | – | – | –
CC(C)[C@@H]1CC[C@@H](C)C[C@H]1OC(=O)NC1CCCCC1 [compound 225] | 840 ± 100 | 1050 ± 30 | – | – | –
O=C(O)CCCCCCCCCCCNC(=O)Nc1ccc2ccccc2c1 [compound 283] | 700 ± 200 | 1120 ± 30 | – | – | –
C(=NC1CCCCC1)=NC1CCCCC1 | – | 470 ± 10 | – | – | 250 ± 20
O=C(NCCc1ccccc1)NCc1ccccc1 [compound 470] | 590 ± 80 | 7600 ± 100 | – | – | –
O=C(NC1CCCCC1)OCCCCC1CCCCC1 [compound 276] | 1100 ± 100 | 340 ± 20 | – | – | –
O=C(NC1CCCCC1)OCc1c2ccccc2cc2ccccc12 [compound 263] | 3000 ± 300 | 330 ± 60 | – | – | –
O=C(NCc1ccncc1)NC1CCCCC1 [compound 188] | 730 ± 80 | 2500 ± 30 | – | – | –
O=C(c1ccccc1)C1OC1c1ccc(-c2ccccc2)cc1 (racemic) [R=4-C6H5—C6H4, R′=C6H5, X—Y=C═O, ±] | – | – | 140 ± 10 | 200 ± 10 | –
O=C(c1ccccc1)C1OC1c1ccccc1 (racemic) [R=C6H5, R′=C6H5, X—Y=C═O, ±] | – | – | 2900 ± 300 | 300 ± 100 | –
Cc1ccc(C(O)C2OC2c2ccc(-c3ccccc3)cc2)cc1 (racemic) | – | – | 90 ± 10 | 150 ± 20 | –
OC(c1ccccc1)C1OC1c1ccc(-c2ccccc2)cc1 (racemic) [R=4-C6H5—C6H4, R′=C6H5, X—Y=CH—OH, ±] | – | – | 510 ± 40 | 720 ± 30 | –
ON=C(c1ccccc1)C1OC1c1ccccc1 (racemic) [R=C6H5, R′=C6H5, X—Y=C═NOH, ±] | – | – | 3500 ± 500 | 290 ± 10 | –

Continued, in another order:

IC50 [1, 3] [nM] | IC50 ([2]; Table 1) [nM] | IC50 [1, 4] [nM] | IC50 ([2]; Table 2) [nM] | Compound | IC50 [1] [nM]
60 ± 10 | 100 ± 10 | – | – | O=C(NCC1CCCCC1)Nc1cccc(Cl)c1 [compound 179] | –
140 ± 20 | 640 ± 30 | – | – | CCCCCCCCCCCCNC(=O)NCCCC [compound 531] | –
50 ± 100 | 100 ± 10 | – | – | O=C(Nc1nnn[nH]1)NC1CCCCC1 [compound 533] | –
90 ± 10 | 720 ± 20 | – | – | CCCCCCCCNC(=O)NCCCCC [compound 125] | –
100 ± 20 | 280 ± 10 | – | – | CCCNC(=O)Nc1cccc2ccccc12 [compound 253] | –
50 ± 10 | 100 ± 10 | – | – | O=C(NC1CCCCCCCCCCC1)NC1CCCCC1 [compound 119] | –
50 ± 10 | 1900 ± 100 | – | – | O=C(NCc1ccccc1)NC1CCCCC1 [compound 270] | –
50 ± 10 | 420 ± 30 | – | – | O=C(CC1CCCCC1)NC1CCCCC1 [compound 187] | –
50 ± 10 | 100 ± 10 | – | – | CC1CCCCC1NC(=O)NC1CCCCC1 (stereo not shown) [compound 551] | –
50 ± 10 | 100 ± 20 | – | – | O=C(NC1CCCCC1)OCc1cccc2ccccc12 [compound 262] | –
70 ± 10 | 150 ± 10 | – | – | O=C(Nc1ccncc1)NC1CCCCC1 [compound 100] | –
60 ± 10 | 120 ± 10 | – | – | CCCCCCCCNC(=O)NC1CCCCC1 [compound 168] | –
60 ± 10 | 230 ± 10 | – | – | CC(C)(C)c1ccc(NC(=O)NC2CCCCC2)cc1 [compound 75] | –
50 ± 10 | 3700 ± 300 | – | – | C[C@@H](NC(=O)NC1CCCCC1)c1ccccc1 [compound 545] | –
50 ± 10 | 100 ± 10 | – | – | O=C(Nc1ccc(OC(F)(F)F)cc1)NC1CCCCC1 [compound 343] | –
120 ± 10 | 220 ± 20 | – | – | C=C(C)CCOC(=O)NC1CCCCC1 [compound 277] | –
80 ± 10 | 120 ± 10 | – | – | CC1CCC(C(C)C)C(OC(=O)NC2CCCCC2)C1 (stereo not shown) [compound 261] | –
60 ± 10 | 130 ± 10 | – | – | O=C(NCC1CCCCC1)Nc1ccc2ccccc2c1 [compound 169] | –
50 ± 10 | 180 ± 40 | – | – | CC(NC(=O)NC1CCCCC1)C1C2CC3CC(C2)CC1C3 (stereo not shown) [compound 358] | –
120 ± 10 | 300 ± 10 | – | – | CCCCCCCCCCNC(=O)Nc1cccc(Cl)c1 [compound 172] | –
